# Data: US9169252B2 (BRISTOL-MYERS SQUIBB COMPANY, priority 2014, dated 2015)
# Where two headings read alike, the source gives them in different places.
# Columns and labels:
# [1] = molecular target: IRAK4 (Homo sapiens (Human), UniProt Q9NWZ3); test: IRAK4 Inhibition Assay; assay type: biochemical; settings: IRAK4 Inhibition Assay; ATP 500 μM; read-out: IRAK4 IC50
# Procedure, shortened: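 IRAK4 combined with fluorescent substrate and compounds, reacted 60 min at room temperature, stopped with 35 mM EDTA. Substrate and phosphorylated product separated electrophoretically on a Caliper LabChip 3000 mobility-shift reader.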
# [2] = test system: TLR2 induced IL-6 in peripheral blood mononuclear cells (PBMCs); test: PBMC TLR2 Induced IL-6 Assay; assay type: cell-based, human; settings: PBMC TLR2 Induced IL-6 Assay, lipoteichoic acid stimulation, IL-6 by ELISA; for EC50: read-out: Cell EC50; for IC50: read-out: Cell IC50
# Procedure, shortened: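 Lipoteichoic acid at 10 µg/ml served as TLR2 stimulus for 5 hours, following a 30-minute compound pretreatment at 37° C. Cells were Ficoll-isolated human PBMCs, 250000 cells/well, cultured in RPMI plus 10% heat-inactivated FCS.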
# IRAK4, sequence (Q9NWZ3 whole entry, species assumed): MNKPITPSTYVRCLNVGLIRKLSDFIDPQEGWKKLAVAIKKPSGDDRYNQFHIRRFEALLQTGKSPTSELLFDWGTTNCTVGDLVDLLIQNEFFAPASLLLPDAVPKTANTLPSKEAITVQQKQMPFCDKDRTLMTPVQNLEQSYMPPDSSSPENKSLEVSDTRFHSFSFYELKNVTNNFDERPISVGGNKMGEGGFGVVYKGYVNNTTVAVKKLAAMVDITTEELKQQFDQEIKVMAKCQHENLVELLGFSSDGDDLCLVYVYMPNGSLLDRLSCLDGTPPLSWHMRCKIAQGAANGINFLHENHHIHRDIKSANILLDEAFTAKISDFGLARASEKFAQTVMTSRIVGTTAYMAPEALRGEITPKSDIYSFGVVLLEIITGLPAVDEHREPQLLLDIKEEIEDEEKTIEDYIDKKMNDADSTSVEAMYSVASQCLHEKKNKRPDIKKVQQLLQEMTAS
Structure (SMILES),IC50 [1] [nM],"EC50 ([2]; Homo sapiens, PBMC) [nM]","IC50 ([2]; Homo sapiens, PBMC) [nM]",IC50 [2] [nM],EC50 [2] [nM]
CC(C)Nc1cc(-n2ncc3cc(C#N)cnc32)ncc1C(=O)NCCC1(O)CCOCC1 [Example 235],6.1,184,–,–,–
CC(C)Nc1cc(-n2ncc3cc(C#N)cnc32)ncc1C(=O)Nc1ccc(C(C)(C)O)cn1 [Example 236],11.6,323,–,–,–
CC(C)Nc1cc(-n2ncc3cc(C#N)cnc32)ncc1C(=O)NCCC1(O)CCOC1 (stereo not drawn) [Example 237],6.7,102,364,–,–
CC(O)CCNC(=O)c1cnc(-n2ncc3cc(C#N)cnc32)cc1NC(C)C (stereo not drawn) [Example 238],8.1,357,–,1810,–
CC(O)CCNC(=O)c1cnc(-n2ncc3cc(C#N)cnc32)cc1NC(C)C (stereo not drawn) [Example 239],5.3,–,–,775,211
CC(C)Nc1cc(-n2ncc3cc(C#N)cnc32)ncc1C(=O)NC1CCN(c2ncccn2)CC1 [Example 240],15.7,305,–,–,–
CC(C)Nc1cc(-n2ncc3cc(C#N)cnc32)ncc1C(=O)Nc1ccc(N2CCN(C)CC2)cn1 [Example 241],7.3,292,–,–,–
CC(C)Nc1cc(-n2ncc3cc(C#N)cnc32)ncc1C(=O)NCC(F)C1(O)COC1 (stereo not drawn) [Example 243],5.3,298,–,1990,–
CC(C)Nc1cc(-n2ncc3cc(C#N)cnc32)ncc1C(=O)N[C@H]1CC[C@H](C(C)(C)O)C1 [Example 244],6.3,259,–,–,–
CC(C)Nc1cc(-n2ncc3cc(C#N)cnc32)ncc1C(=O)N[C@@H]1CCCN(S(C)(=O)=O)C1 [Example 245],15.7,233,–,–,–
CC(C)Nc1cc(-n2ncc3cc(C#N)cnc32)ncc1C(=O)N[C@H]1CCCN(S(C)(=O)=O)C1 [Example 246],19.8,353,–,–,–
COC1CCN(c2ccc(NC(=O)c3cnc(-n4ncc5cc(C#N)cnc54)cc3NC(C)C)cn2)CC1 [Example 247],6.8,173,–,–,–
CC(C)Nc1cc(-n2ncc3cc(C#N)cnc32)ncc1C(=O)NCC(F)C1(O)COC1 (stereo not drawn) [Example 248],3.6,–,–,554,–
CC(C)Nc1cc(-n2ncc3cc(C#N)cnc32)ncc1C(=O)NCC(F)C1(O)COC1 (stereo not drawn) [Example 249],6.1,–,–,355,–
CC(C)Nc1cc(-n2ncc3cc(C#N)cnc32)ncc1C(=O)NCCC1(O)CCN(C)CC1 [Example 250],8.3,497,–,–,–
CC(C)Nc1cc(-n2ncc3cc(C#N)cnc32)ncc1C(=O)NCCc1ccc(S(N)(=O)=O)cc1 [Example 251],3.1,311,–,–,–
CC(C)Nc1cc(-n2ncc3cc(C#N)cnc32)ncc1C(=O)NCCC1(O)CCCC1 [Example 252],3.6,–,197,–,–
CC(C)Nc1cc(-n2ncc3cc(C#N)cnc32)ncc1C(=O)NCCC1(O)CCN(C2COC2)CC1 [Example 253],8.5,–,363,–,–
COC1CCN(c2ccc(NC(=O)c3cnc(-n4ncc5cc(C#N)cnc54)cc3NC(C)C)nc2)CC1 [Example 254],10,–,496,–,–
CC(C)Nc1cc(-n2ncc3cc(C#N)cnc32)ncc1C(=O)NCCC1(O)CCNC1 (stereo not drawn) [Example 255],7.5,329,–,–,–
CC(C)Nc1cc(-n2ncc3cc(C#N)cnc32)ncc1C(=O)NC[C@@H](F)C(=O)N1CCOCC1 [Example 256],14.7,–,148,–,–
CC(C)Nc1cc(-n2ncc3cc(C#N)cnc32)ncc1C(=O)NC[C@@H](F)C(=O)N1CCN(S(C)(=O)=O)CC1 [Example 257],8.9,136,–,–,–
CC(C)Nc1cc(-n2ncc3cc(Cl)cnc32)ncc1C(=O)NCC(F)C1(O)COC1 (stereo not drawn) [Example 258],6.3,–,42,–,–
CC(C)Nc1cc(-n2ncc3cc(C#N)cnc32)ncc1C(=O)NCCc1ccncc1 [Example 259],2.5,–,102,–,–
CC(C)Nc1cc(-n2ncc3cc(C#N)cnc32)ncc1C(=O)NCCc1ccc(F)cc1 [Example 260],3.3,–,159,–,–

Structure (SMILES),IC50 [1] [nM],"EC50 ([2]; Homo sapiens, PBMC) [nM]","IC50 ([2]; Homo sapiens, PBMC) [nM]",IC50 [2] [nM],EC50 [2] [nM]
COc1ccc(CCNC(=O)c2cnc(-n3ncc4cc(C#N)cnc43)cc2NC(C)C)cc1 [Example 261],3.4,–,154,–,–
CC(C)Nc1cc(-n2ncc3cc(C#N)c(N)nc32)ncc1C(=O)NC[C@@H](F)C(C)(C)O [Example 262],1.3,–,48,–,–
CC(C)Nc1cc(-n2ncc3cc(C#N)cnc32)ncc1C(=O)NCCC(C)NS(C)(=O)=O (stereo not drawn) [Example 264],6.5,–,338,–,–
CC(C)Nc1cc(-n2ncc3cc(C#N)cnc32)ncc1C(=O)NCCC(C)NS(C)(=O)=O (stereo not drawn) [Example 265],2.4,–,–,241,–
CC(C)Nc1cc(-n2ncc3cc(C#N)cnc32)ncc1C(=O)NCCC1CCN(C)CC1 [Example 266],2.6,–,73,–,–
CC(C)Nc1cc(-n2ncc3cc(C#N)cnc32)ncc1C(=O)NCc1nc(Cc2ccccc2)no1 [Example 267],4.5,–,516,–,–
CC(C)Nc1cc(-n2ncc3cc(C#N)cnc32)ncc1C(=O)Nc1cnn(C2COC2)c1 [Example 268],10.6,–,171,–,–
CC(C)Nc1cc(-n2ncc3cc(C#N)cnc32)ncc1C(=O)NCCc1ccc(N(S(C)(=O)=O)S(C)(=O)=O)cc1 [Example 269],3.6,–,171,–,–
CC(=O)Nc1ccc(CCNC(=O)c2cnc(-n3ncc4cc(C#N)cnc43)cc2NC(C)C)cc1 [Example 270],1.6,–,348,–,–
CC(C)Nc1cc(-n2ncc3cc(C#N)cnc32)ncc1C(=O)Nc1cnn(C2CCOCC2)c1 [Example 271],15.9,–,176,–,–
CC(C)Nc1cc(-n2ncc3cc(C#N)cnc32)ncc1C(=O)NC1CCN(S(=O)(=O)C(C)C)CC1 [Example 272],5.1,–,737,–,–
CC(C)Nc1cc(-n2ncc3cc(C#N)cnc32)ncc1C(=O)NC1CCN(C(=O)C(C)C)CC1 [Example 273],18.6,–,94,–,–
CC(C)Nc1cc(-n2ncc3cc(C#N)cnc32)ncc1C(=O)NCCC1CCN(C(=O)CC#N)CC1 [Example 275],8,–,115,–,–
CC(C)Nc1cc(-n2ncc3cc(C#N)cnc32)ncc1C(=O)NCCc1cccnc1 [Example 276],4.7,–,380,–,–
CC(C)Nc1cc(-n2ncc3cc(C#N)cnc32)ncc1C(=O)NCCC1(O)CCC(C)(O)CC1 (stereo not drawn) [Example 277],5.9,–,251,–,–
CC(C)Nc1cc(-n2ncc3cc(C#N)cnc32)ncc1C(=O)NCCC1(O)CCC(F)(F)CC1 [Example 279],6.5,–,247,–,–
CC(C)CC(=O)NCc1cnc2c(cnn2-c2cc(NC(C)C)c(C(=O)NC[C@@H](F)C(C)(C)O)cn2)c1 [Example 280],16.9,–,692,–,–
CC(C)Nc1cc(-n2ncc3cc(C#N)cnc32)ncc1C(=O)Nc1cnn(C2CN(S(C)(=O)=O)C2)c1 [Example 281],7.8,–,255,–,–
CC[C@@H](C)Nc1cc(-n2ncc3cc(C#N)cnc32)ncc1C(=O)NC[C@@H](F)C(C)(C)O [Example 283],2.8,–,135,–,–
CC(C)Nc1cc(-n2ncc3cc(C#N)cnc32)ncc1C(=O)Nc1cnn(CC(F)F)c1 [Example 285],10,–,200,–,–
CC(C)(C)Nc1cc(-n2ncc3cc(C#N)cnc32)ncc1C(=O)NC[C@@H](F)C(C)(C)O [Example 286],1.7,–,158,–,–
CC[C@H](C)Nc1cc(-n2ncc3cc(C#N)cnc32)ncc1C(=O)NC[C@@H](F)C(C)(C)O [Example 289],4.7,–,275,–,–
CCS(=O)(=O)N1CCC(NC(=O)c2cnc(-n3ncc4cc(C#N)cnc43)cc2NC(C)C)CC1 [Example 290],5.9,–,364,–,–
COC1CCC(O)(CCNC(=O)c2cnc(-n3ncc4cc(C#N)cnc43)cc2NC(C)C)CC1 (stereo not drawn) [Example 291],3.5,–,349,–,–
